Patent US20260191811A1, “COMBINATION OF CANNABIDIOL AND A PPAR AGONIST” (priority 2020, published 2026)

Tests used:
[1] = test system: rats; assay: Olfactory fear conditioning; format: in vivo; details: Experiment 3, FIG. 36, 1 ng CBD, 0.25 nmol omega-3
Excerpt: The olfactory fear conditioning protocol is for measurement of the formation of fear memory. This protocol lasts three days. On day 1, the rat is habituated to two boxes (one with a striped background and one with a polka dot back ground).
On day 2, the rat receives a drug infusion and is placed into one of the boxes (previously assigned as the “shock box”). While in the box, the rat is exposed to 2 odours (peppermint and almond). The rat is exposed to one odour followed by the other odour 5 times. One of these odours were previously assigned as the “shock” odour (CS+) such that after exposure to the “shock” odour, the rat would receive a foot shock. There was no foot shock following exposure to the “safe” odour (CS−). On day 3, the rat was placed in the safe box. They were exposed to each odour (both CS+ and CS−) one at a time for 5 minutes. During the 5 minutes, freezing behaviour was recorded.
It would be expected that CBD would block the formation of fear memory and the rats would freeze a similar amount to CS+ and CS−.
2-way repeated measures ANOVA was performed for the three experiments. With reference to FIG. 34, there was no significant interaction effect by group x CS (p=0.209).

[2] = test system: rats; assay: Elevated plus maze; format: in vivo; details: intra-NAc; for number of entries into the open arms: Experiment 3, FIG. 13
Experimental: In these experiments, the following was measured: • 1. Time in open arms • 2. Entries into open arms
In these experiments, the apparatus of FIG. 7 was used.
As shown, the apparatus includes 2 open arms and 2 closed arms that form a plus shape. Rats feel more secure in closed spaces and thus it would be expected that more anxious rats would spend more time in the closed arms and less time on the open arms.
Before each test, the same doses of drugs used in the electrophysiology experiments were infused.
The rat was then placed in the middle of the apparatus, facing into the closed arms and recorded for 10 minutes.
The number of entries into the open arms and the total time spent in the open arms was recorded. Less anxious rats would be expected to make more entries into the open arms and spend more time there as well.

[3] = test system: dopamine neurons in the ventral tegmental area (VTA); assay: Electrophysiology: VTA dopamine neuron recording after intra-NAc infusion; format: in vivo, rats
Experimental: Three experiments were run of this type. All included a vehicle. In addition, the components were as follows: • Experiment 1: • 100 ng CBD; 100 ng CBD+100 ng T007; 100 ng T007 • Experiment 2: • 50 ng CBD; 0.5 nmol n−3; 50 ng CBD+0.5 nmol n−3 • Experiment 3: • 1 ng CBD; 0.25 nmol n−3; 1 ng CBD+0.25 nmol n−3; 1 ng CBD+0.25 nmol n−3+100 ng T007 • In the above: • CBD=cannabidiol • T007=T0070907 (PPARg antagonist) • n−3=omega-3
The omega-3 formulation includes equal amounts of DHA and EPA. Two doses were used in this study. 0.5 nmol n−3 is made up of 0.5 nmol DHA and 0.5 nmol EPA. 0.25 nmol n−3 is made up of 0.25 nmol DHA and 0.25 nmol EPA.
In this procedure, rats were anesthetized with urethane. An electrode was used to record the baseline frequency of dopamine neurons in the ventral tegmental area (VTA) for 5 minutes. After the baseline recording, combinations of CBD, omega-3, and T007 (a PPARg antagonist) were infused into the nucleus accumbens (NAc).
The post-infusion frequency of that neuron was compared to its pre-infusion frequencies.
One of the characteristics of dopamine cells is that they have a tonic mode of firing and a burst mode of firing. Therefore, both the frequency and burst changes following infusions were analyzed. FIG. 1 looks at the frequency of VTA dopamine cells. The Y-axis is frequency (% Baseline). […] This means that after an intra-NAc infusion of 100 ng CBD, the dopamine cell would decrease in frequency about 15%.
FIG. 2 looking at difference in burst percentage. A burst is a group of signals occurring in a short period of time. Specifically, in this experiment, a burst is defined to be an event where 2 spikes occur within a timespan of 80 ms. […] As such, the number of bursts that occurred during pre-infusion was recording and the number of spikes that occurred in those bursts was determined. The number of those spikes occurring in those bursts was divided by the total number of spikes that occurred during the pre-infusion recording The same was done for the post-infusion recording and the difference between these 2 values was determined.

[4] = test system: rats; assay: Light dark box; format: in vivo; details: for time to make the second transition back into the light box: Experiment 1, FIG. 16, 100 ng T007
Experimental: In these experiments, the following was measured: • 1. First transition to the dark box • 2. Second transition to the light box • 3. Total number of transitions • 4. Time spent in the light box
One half of the box is open at the top and is brightly lit. There is an opening to the dark-box that is covered by a lid.
Rats would prefer to be in the dark box and would be anxious about going into the light box.
Following the infusion, the rate is placed in the light box facing away from the opening to the dark box. A 10 minute recording is made. During these 10 minutes, measurements are made of four things: • 1. The time it takes for the rat to make the first transition into the dark box • 2. The time it takes for the rat to make the second transition from the dark box back into the light box • 3. Number of transitions between boxes • 4. Time spent in light box
Therefore, it would be expected than less anxious rats would take a longer time to make the first transition into the dark box, spend less time to make the second transition into the light box, make more transitions between boxes, and spend more time in the light box.

[5] = Experiment 3, FIG. 12, 1 ng CBD, 0.25 nmol omega-3, combination, combination+100 ng T007
[6] = 1 ng CBD, 0.25 nmol omega-3, combination, combination+100 ng T007
[7] = Experiment 3, FIG. 5, 1 ng CBD, 0.25 nmol omega-3, 1 ng CBD+0.25 nmol omega-3, combination+100 ng T007, intra-NAc, compared to vehicle
[8] = 100 ng CBD, 100 ng CBD+100 ng T007
[9] = Experiment 3, FIG. 24, 1 ng CBD, 0.25 nmol omega-3, combination, combination+100 ng T007
[10] = first experiment, FIG. 17, 100 ng CBD, 100 ng CBD+100 ng T007
[11] = first experiment, FIG. 18, 100 ng CBD, 100 ng CBD+100 ng T007

| Compound | time spent in open arms [2, 5] | number of entries into the open arms [2, 6] | VTA dopamine activity [3, 7] | time to make the second transition back into the light box [4, 8] | time to make the second transition [4, 9] | number of transitions between boxes [4, 10] | time spent in the light box [4, 11] | also measured |
| --- | --- | --- | --- | --- | --- | --- | --- | --- |
| O=C(Nc1ccncc1)c1cc([N+](=O)[O-])ccc1Cl [T007] | blocked | blocked | blocked | blocked | blocked | blocked | blocked | difference between the freezing time to CS+ and CS− (fear memory formation) ([1]; combination, combination+100 ng T007): blocked slightly |
| C=C(C)[C@@H]1CCC(C)=C[C@H]1c1c(O)cc(CCCCC)cc1O [CBD, cannabidiol] | ineffective | not effective | not different from vehicle | significantly decreased | ineffective | significantly increased | significantly increased | freezing time compared to vehicle ([1]; 1 ng CBD+0.25 nmol omega-3): not different from vehicle; time spent in open arms ([2]; Experiment 1, FIG. 8, 100 ng CBD, 100 ng CBD+100 ng T007, 100 ng T007, 10 minutes): slight increase; number of entries into open arms ([2]; Experiment 1, FIG. 9, 100 ng CBD, 100 ng CBD+100 ng T007, 100 ng T007, 10 minutes): slight increase; time spent in open arms ([2]; Experiment 2, FIG. 10, 50 ng CBD, 0.5 nmol omega-3, 50 ng CBD+0.5 nmol omega-3): not effective; number of entries into open arms ([2]; Experiment 2, FIG. 11, 50 ng CBD, 0.5 nmol omega-3, 50 ng CBD+0.5 nmol omega-3): not effective; frequency (% Baseline) of VTA dopamine cells ([3]; Experiment 1, FIG. 1, 100 ng CBD intra-NAc infusion, post- vs pre-infusion): about 85%; VTA dopamine frequency ([3]; Experiment 1, FIG. 1, 100 ng CBD, 100 ng CBD+100 ng T007, 100 ng T007, intra-NAc): decreasing trend; decrease in frequency of the dopamine cell ([3]; Experiment 1, FIG. 1, after intra-NAc infusion of 100 ng CBD): about 15%; difference in burst percentage (VTA DA bursts) ([3]; Experiment 1, FIG. 2, 100 ng CBD, 100 ng CBD+100 ng T007, 100 ng T007, intra-NAc): very slight decrease; VTA dopamine activity ([3]; Experiment 2, FIG. 3, 50 ng CBD, 0.5 nmol omega-3, 50 ng CBD+0.5 nmol omega-3, intra-NAc): ineffective; time to make the second transition ([4]; Experiment 2, FIG. 20, 50 ng CBD, 0.5 nmol omega-3, 50 ng CBD+0.5 nmol omega-3): not effective; number of transitions between boxes ([4]; Experiment 3, FIG. 25, 1 ng CBD, 0.25 nmol omega-3, 1 ng CBD+0.25 nmol omega-3): ineffective; time spent in the light box ([4]; Experiment 3, FIG. 26, 1 ng CBD, 0.25 nmol omega-3, 1 ng CBD+0.25 nmol omega-3): ineffective |
